Reference: ChEMBL document CHEMBL6092185, “Discovery of glycosidated glycyrrhetinic acid derivatives: Natural product-based soluble epoxide hydrolase inhibitors” (Eur J Med Chem, 2024)
pIC50: −log10 of the molar value.

Assays:
[1] = biological target: T1, Bifunctional epoxide hydrolase 2 (Mus musculus, UniProt P34914); experiment: Inhibition of C57BL/6J mouse cortex sEH using 14,15-EET as substrate preincubated for 15 mins followed by substrate addition measured after 2 hrs by UPLC-MS/MS analysis
T1 sequence (P34914 whole entry): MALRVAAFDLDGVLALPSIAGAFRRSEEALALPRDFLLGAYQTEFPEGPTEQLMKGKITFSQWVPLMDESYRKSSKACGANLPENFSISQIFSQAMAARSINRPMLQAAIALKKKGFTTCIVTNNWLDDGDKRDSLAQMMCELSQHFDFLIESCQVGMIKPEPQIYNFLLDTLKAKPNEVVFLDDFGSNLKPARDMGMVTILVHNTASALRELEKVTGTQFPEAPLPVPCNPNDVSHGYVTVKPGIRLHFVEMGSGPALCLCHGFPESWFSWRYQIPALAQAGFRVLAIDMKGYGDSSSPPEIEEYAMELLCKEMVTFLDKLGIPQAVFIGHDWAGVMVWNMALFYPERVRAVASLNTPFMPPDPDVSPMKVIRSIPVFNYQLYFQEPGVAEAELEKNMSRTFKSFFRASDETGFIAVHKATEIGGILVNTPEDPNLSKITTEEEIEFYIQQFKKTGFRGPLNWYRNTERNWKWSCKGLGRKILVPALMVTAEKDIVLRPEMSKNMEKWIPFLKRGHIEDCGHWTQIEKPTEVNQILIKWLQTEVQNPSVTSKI

Mus musculus [2] = species on record: Mus musculus; experiment: animal or person; details: BALB/c, 2 h, read-out: INH
Description: Anti-inflammatory activity in BALB/c mouse model of Carrageenan-induced paw edema assessed as inhibition of edema at 5 mg/kg, ip measured after 2 hrs relative to control

Mus musculus [3] = species on record: Mus musculus; experiment: animal or person; details: BALB/c, 3 h, read-out: INH
Description: Anti-inflammatory activity in BALB/c mouse model of Carrageenan-induced paw edema assessed as inhibition of edema at 5 mg/kg, ip measured after 3 hrs relative to control

Mus musculus [4] = species on record: Mus musculus; experiment: animal or person; details: BALB/c, 6 h, read-out: INH
Description: Anti-inflammatory activity in BALB/c mouse model of Carrageenan-induced paw edema assessed as inhibition of edema at 5 mg/kg, ip measured upto 6 hrs relative to control

[5] = Cytotoxicity against HEK293T cells incubated overnight by CCK8 assay; details: human
[6] = Cytotoxicity against human HepG2 cells incubated overnight by CCK8 assay
Mus musculus [7] = species on record: Mus musculus; experiment: animal or person; details: BALB/c, 4 h, read-out: INH

SMILES	pIC50 [1]	also measured
CC1(C)[C@@H](O)CC[C@]2(C)[C@H]3C(=O)C=C4[C@H]5C[C@@](C)(CNC(=O)NCc6ccc(S(N)(=O)=O)cc6)CC[C@]5(C)CC[C@@]4(C)[C@]3(C)CC[C@@H]12	7.89	
CC1(C)[C@@H](O[C@H]2O[C@H](CO)[C@@H](O)[C@H](O)[C@H]2O)CC[C@]2(C)[C@H]3C(=O)C=C4[C@@H]5C[C@@](C)(CNC(=O)NCC6CCC(OC(F)(F)F)CC6)CC[C@]5(C)CC[C@@]4(C)[C@]3(C)CC[C@@H]12 (stereo partly specified)	5.64	
CC(C)CNC(=O)NC[C@@]1(C)CC[C@]2(C)CC[C@]3(C)C(=CC(=O)[C@@H]4[C@@]5(C)CC[C@H](O)C(C)(C)[C@@H]5CC[C@]43C)[C@H]2C1	7.87	
CCC(=O)N1CCC(CNC(=O)NC[C@@]2(C)CC[C@]3(C)CC[C@]4(C)C(=CC(=O)[C@@H]5[C@@]6(C)CC[C@H](O[C@@H]7O[C@H](CO)[C@@H](O)[C@H](O)[C@@H]7O)C(C)(C)[C@@H]6CC[C@]54C)[C@@H]3C2)CC1	6.76	
CC1(C)[C@@H](O[C@@H]2O[C@H](CO)[C@@H](O)[C@H](O)[C@H]2O)CC[C@]2(C)[C@H]3C(=O)C=C4[C@H]5C[C@@](C)(CNC(=O)NCC6CCOCC6)CC[C@]5(C)CC[C@@]4(C)[C@]3(C)CC[C@@H]12	6.52	inhibition in vivo at 5 mg/kg (Mus musculus [2]): 43.2%; inhibition in vivo at 5 mg/kg (Mus musculus [3]): 42.4%
CC1(C)[C@@H](O[C@@H]2O[C@H](CO)[C@@H](O)[C@H](O)[C@H]2O)CC[C@]2(C)[C@H]3C(=O)C=C4[C@@H]5C[C@@](C)(CNC(=O)NCC6CCOCC6)CC[C@]5(C)CC[C@@]4(C)[C@]3(C)CC[C@@H]12	6.35	
CC1(C)[C@@H](O)CC[C@]2(C)[C@H]3C(=O)C=C4[C@H]5C[C@@](C)(CNC(=O)NCc6ccc(OC(F)(F)F)cc6)CC[C@]5(C)CC[C@@]4(C)[C@]3(C)CC[C@@H]12	7.77	
CC1(C)C(=O)CC[C@]2(C)[C@H]3C(=O)C=C4[C@H]5C[C@@](C)(CNC(=O)NCC6CCOCC6)CC[C@]5(C)CC[C@@]4(C)[C@]3(C)CC[C@@H]12	7.87	
CC1(C)[C@@H](O[C@@H]2O[C@H](CO)[C@@H](O)[C@H](O)[C@@H]2O)CC[C@]2(C)[C@H]3C(=O)C=C4[C@H]5C[C@@](C)(CNC(=O)NCC6CCOCC6)CC[C@]5(C)CC[C@@]4(C)[C@]3(C)CC[C@@H]12	6.80	
CC1(C)C(=O)CC[C@]2(C)[C@H]3C(=O)C=C4[C@@H]5C[C@@](C)(CNC(=O)NCC6CCOCC6)CC[C@]5(C)CC[C@@]4(C)[C@]3(C)CC[C@@H]12	7.72	
CC1(C)[C@@H](O[C@H]2O[C@H](CO)[C@@H](O)[C@H](O)[C@H]2O)CC[C@]2(C)[C@H]3C(=O)C=C4[C@H]5C[C@@](C)(CNC(=O)NCC6CCOCC6)CC[C@]5(C)CC[C@@]4(C)[C@]3(C)CC[C@@H]12	6.35	inhibition in vivo at 5 mg/kg (Mus musculus [4]): 40.3%
CC1(C)[C@@H](O[C@@H]2O[C@H](CO)[C@@H](O)[C@H](O)[C@H]2O)CC[C@]2(C)[C@H]3C(=O)C=C4[C@H]5C[C@@](C)(CNC(=O)NCc6ccc(OC(F)(F)F)cc6)CC[C@]5(C)CC[C@@]4(C)[C@]3(C)CC[C@@H]12	5.43	
CC1(C)[C@@H](O[C@@H]2OC[C@@H](O)[C@@H](O)[C@@H]2O)CC[C@]2(C)[C@H]3C(=O)C=C4[C@H]5C[C@@](C)(CNC(=O)NCC6CCOCC6)CC[C@]5(C)CC[C@@]4(C)[C@]3(C)CC[C@@H]12	6.94	
CC1(C)[C@@H](O)CC[C@]2(C)[C@H]3C(=O)C=C4[C@@H]5C[C@@](C)(CNC(=O)NCc6ccc(OC(F)(F)F)cc6)CC[C@]5(C)CC[C@@]4(C)[C@]3(C)CC[C@@H]12	8.07	
CC1(C)[C@@H](O)CC[C@]2(C)[C@H]3C(=O)C=C4[C@@H]5C[C@@](C)(CNC(=O)NCc6ccc(S(C)(=O)=O)cc6)CC[C@]5(C)CC[C@@]4(C)[C@]3(C)CC[C@@H]12	7.80	
CC1(C)[C@@H](O)CC[C@]2(C)[C@H]3C(=O)C=C4[C@H]5C[C@@](C)(CNC(=O)NCc6ccc(S(C)(=O)=O)cc6)CC[C@]5(C)CC[C@@]4(C)[C@]3(C)CC[C@@H]12	8.01	
CC1(C)[C@@H](O[C@@H]2OC[C@@H](O)[C@H](O)[C@H]2O)CC[C@]2(C)[C@H]3C(=O)C=C4[C@H]5C[C@@](C)(CNC(=O)NCC6CCOCC6)CC[C@]5(C)CC[C@@]4(C)[C@]3(C)CC[C@@H]12	6.36	

SMILES	pIC50 [1]	also measured
CC1(C)[C@@H](O)CC[C@]2(C)[C@H]3C(=O)C=C4[C@H]5C[C@@](C)(CNC(=O)NCC6CCOCC6)CC[C@]5(C)CC[C@@]4(C)[C@]3(C)CC[C@@H]12	8.28	pIC50 [5]: < 4.30; pIC50 [6]: < 4.30; inhibition in vivo at 20 mg/kg (Mus musculus [7]): 28.4%
CC(C)CNC(=O)NC[C@@]1(C)CC[C@]2(C)CC[C@]3(C)C(=CC[C@@H]4[C@@]5(C)CC[C@H](O)C(C)(C)[C@@H]5CC[C@]43C)[C@@H]2C1	8.18	
CC1(C)[C@@H](O)CC[C@]2(C)[C@H]3C(=O)C=C4[C@@H]5C[C@@](C)(CNC(=O)NCc6ccc(S(N)(=O)=O)cc6)CC[C@]5(C)CC[C@@]4(C)[C@]3(C)CC[C@@H]12	7.70	
CC1(C)[C@@H](O[C@H]2O[C@H](CO)[C@@H](O)[C@H](O)[C@H]2O)CC[C@]2(C)[C@H]3C(=O)C=C4[C@@H]5C[C@@](C)(CNC(=O)NCC6CCOCC6)CC[C@]5(C)CC[C@@]4(C)[C@]3(C)CC[C@@H]12	6.41	
CCC(=O)N1CCC(CNC(=O)NC[C@@]2(C)CC[C@]3(C)CC[C@]4(C)C(=CC(=O)[C@@H]5[C@@]6(C)CC[C@H](O)C(C)(C)[C@@H]6CC[C@]54C)[C@@H]3C2)CC1	8.25	
CC[C@H](C)C(=O)N1CCC(NC(=O)Nc2ccc(OC(F)(F)F)c(F)c2)CC1		inhibition in vivo at 5 mg/kg (Mus musculus [4]): 39.2%
CC1(C)[C@@H](O[C@@H]2O[C@H](CO)[C@@H](O)[C@H](O)[C@H]2O)CC[C@]2(C)[C@H]3C(=O)C=C4[C@@H]5C[C@@](C)(CNC(=O)NCC6CCC(OC(F)(F)F)CC6)CC[C@]5(C)CC[C@@]4(C)[C@]3(C)CC[C@@H]12 (stereo partly specified)	5.67	
CC1(C)[C@@H](O[C@@H]2O[C@H](CO)[C@H](O)[C@H](O)[C@H]2O)CC[C@]2(C)[C@H]3C(=O)C=C4[C@H]5C[C@@](C)(CNC(=O)NCC6CCOCC6)CC[C@]5(C)CC[C@@]4(C)[C@]3(C)CC[C@@H]12	6.27	
CC1(C)[C@@H](O)CC[C@]2(C)[C@H]3CC=C4[C@@H]5C[C@@](C)(CNC(=O)NCC6CCOCC6)CC[C@]5(C)CC[C@@]4(C)[C@]3(C)CC[C@@H]12	7.99	
CCC(=O)N1CCC(CNC(=O)NC[C@@]2(C)CC[C@]3(C)CC[C@]4(C)C(=CC(=O)[C@@H]5[C@@]6(C)CC[C@H](O[C@H]7O[C@H](CO)[C@@H](O)[C@H](O)[C@@H]7O)C(C)(C)[C@@H]6CC[C@]54C)[C@H]3C2)CC1	6.82	
CC1(C)[C@@H](O[C@H]2O[C@H](CO)[C@H](O)[C@H](O)[C@H]2O)CC[C@]2(C)[C@H]3C(=O)C=C4[C@H]5C[C@@](C)(CNC(=O)NCC6CCOCC6)CC[C@]5(C)CC[C@@]4(C)[C@]3(C)CC[C@@H]12	6.51	
CC1(C)[C@@H](O)CC[C@]2(C)[C@H]3C(=O)C=C4[C@@H]5C[C@@](C)(CNC(=O)NCC6CCOCC6)CC[C@]5(C)CC[C@@]4(C)[C@]3(C)CC[C@@H]12	8.11	inhibition in vivo at 20 mg/kg (Mus musculus [7]): 27.2%
CC1(C)[C@@H](O[C@H]2OC[C@@H](O)[C@H](O)[C@H]2O)CC[C@]2(C)[C@H]3C(=O)C=C4[C@H]5C[C@@](C)(CNC(=O)NCC6CCOCC6)CC[C@]5(C)CC[C@@]4(C)[C@]3(C)CC[C@@H]12	6.35	
CC(C)CNC(=O)NC[C@@]1(C)CC[C@]2(C)CC[C@]3(C)C(=CC(=O)[C@@H]4[C@@]5(C)CC[C@H](O)C(C)(C)[C@@H]5CC[C@]43C)[C@@H]2C1	7.69	
CCC(=O)N1CCC(CNC(=O)NC[C@@]2(C)CC[C@]3(C)CC[C@]4(C)C(=CC(=O)[C@@H]5[C@@]6(C)CC[C@H](O)C(C)(C)[C@@H]6CC[C@]54C)[C@H]3C2)CC1	8.00	
CCC(=O)N1CCC(CNC(=O)NC[C@@]2(C)CC[C@]3(C)CC[C@]4(C)C(=CC(=O)[C@@H]5[C@@]6(C)CC[C@H](O[C@@H]7O[C@H](CO)[C@@H](O)[C@H](O)[C@@H]7O)C(C)(C)[C@@H]6CC[C@]54C)[C@H]3C2)CC1	6.82	
CC1(C)[C@@H](O[C@H]2O[C@H](CO)[C@@H](O)[C@H](O)[C@H]2O)CC[C@]2(C)[C@H]3C(=O)C=C4[C@H]5C[C@@](C)(CNC(=O)NCc6ccc(OC(F)(F)F)cc6)CC[C@]5(C)CC[C@@]4(C)[C@]3(C)CC[C@@H]12	5.25	
